{"source": "patent US11345681B1", "about": "“Inhibitors of fibroblast growth factor receptor kinases” (Kinnate Biopharma Inc., priority 2020, dated 2022)"}
{"target": "Wild type FGFR2 (Homo sapiens (Human), UniProt P21802)", "sequence (P21802 22-821)": "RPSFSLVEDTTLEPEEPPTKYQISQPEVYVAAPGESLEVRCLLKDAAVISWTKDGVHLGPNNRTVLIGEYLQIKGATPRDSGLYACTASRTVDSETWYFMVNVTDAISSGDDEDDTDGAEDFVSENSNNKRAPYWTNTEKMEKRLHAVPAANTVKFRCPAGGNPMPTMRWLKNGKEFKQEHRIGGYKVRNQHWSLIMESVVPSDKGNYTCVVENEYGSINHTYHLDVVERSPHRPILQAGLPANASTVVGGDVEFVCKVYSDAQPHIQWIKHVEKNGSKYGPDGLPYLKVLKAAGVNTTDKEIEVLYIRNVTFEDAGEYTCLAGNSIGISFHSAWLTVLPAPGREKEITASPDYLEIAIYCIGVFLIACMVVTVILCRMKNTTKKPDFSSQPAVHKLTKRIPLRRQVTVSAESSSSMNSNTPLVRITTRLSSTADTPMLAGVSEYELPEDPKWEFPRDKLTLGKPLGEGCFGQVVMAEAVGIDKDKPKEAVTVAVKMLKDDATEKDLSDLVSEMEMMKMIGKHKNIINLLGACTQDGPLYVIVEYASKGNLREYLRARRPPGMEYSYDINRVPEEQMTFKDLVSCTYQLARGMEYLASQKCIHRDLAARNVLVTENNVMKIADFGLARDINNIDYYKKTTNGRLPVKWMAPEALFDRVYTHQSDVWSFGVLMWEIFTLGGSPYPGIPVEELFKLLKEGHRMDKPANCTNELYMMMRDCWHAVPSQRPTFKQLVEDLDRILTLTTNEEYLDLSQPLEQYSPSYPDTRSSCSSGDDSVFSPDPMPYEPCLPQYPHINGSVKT", "assay": "FGFR2 kinase assay (fluorescence-based microfluidic mobility shift assay)", "format": "biochemical", "conditions": "wild type FGFR2 0.06 nM, 100 μM ATP, 80 minutes at room temperature; class symbols", "units": {"IC50": "nM"}}
{"smiles": "C=CC(=O)N1C[C@@H](n2nc(C#Cc3cc4nc(C)n(C5CC5)c4cc3Cl)c(C(N)=O)c2NC)C[C@@H]1[C@H](C)O", "note": "[Example 221, 1-((3S,5R)-1-Acryloyl-5-((S)-1-hydroxyethyl)pyrrolidin-3-yl)-3-((6-chloro-1-cyclopropyl-2-methyl-1H-benzo[d]imidazol-5-yl)ethynyl)-5-(methylamino)-1H-pyrazole-4-carboxamide]", "IC50": "≤ 100"}
{"smiles": "C=CC(=O)N1C[C@@H](n2nc(C#Cc3cc4ncn(C5CC5)c4cc3Cl)c(C(N)=O)c2NC)C[C@@H]1[C@@H](C)O", "note": "[Example 222, 3-[2-(6-Chloro-1-cyclopropyl-1,3-benzodiazol-5-yl)ethynyl]-1-[(3S,5R)-5-[(1R)-1-hydroxyethyl]-1-(prop-2-enoyl)pyrrolidin-3-yl]-5-(methylamino)pyrazole-4-carboxamide]", "IC50": "≤ 100"}
{"smiles": "C=CC(=O)N1C[C@@H](n2nc(C#Cc3cc4ncn(C5CC5)c4cc3Cl)c(C(N)=O)c2NC)C[C@@H]1[C@H](C)O", "note": "[Example 223, 3-[2-(6-chloro-1-cyclopropyl-1,3-benzodiazol-5-yl)ethynyl]-1-[(3S,5R)-5-[(1S)-1-hydroxyethyl]-1-(prop-2-enoyl)pyrrolidin-3-yl]-5-(methylamino)pyrazole-4-carboxamide]", "IC50": "≤ 100"}
{"smiles": "C=CC(=O)N1C[C@@H](n2nc(C#Cc3cc4nc(C)n(C5CC5)c4cc3F)c(C(N)=O)c2NC)C[C@@H]1[C@@H](C)O", "note": "[Example 224, 3-[2-(1-Cyclopropyl-6-fluoro-2-methyl-1,3-benzodiazol-5-yl)ethynyl]-1-[(3S,5R)-5-[(1R)-1-hydroxyethyl]-1-(prop-2-enoyl)pyrrolidin-3-yl]-5-(methylamino)pyrazole-4-carboxamide]", "IC50": "≤ 100"}
{"smiles": "C=CC(=O)N1C[C@@H](n2nc(C#Cc3cc4nc(C)n(C5CC5)c4cc3F)c(C(N)=O)c2NC)C[C@@H]1[C@H](C)O", "note": "[Example 225, 3-[2-(1-Cyclopropyl-6-fluoro-2-methyl-1,3-benzodiazol-5-yl)ethynyl]-1-[(3S,5R)-5-[(1S)-1-hydroxyethyl]-1-(prop-2-enoyl)pyrrolidin-3-yl]-5-(methylamino)pyrazole-4-carboxamide]", "IC50": "≤ 100"}
{"smiles": "CNc1c(C(N)=O)c(C#Cc2cc3nc(C)n(C4CC4)c3cc2F)nn1[C@H]1C[C@H](COC)N(C(=O)C#CC(C)(C)O)C1", "note": "[Example 227, 3-[2-(1-Cyclopropyl-6-fluoro-2-methyl-1,3-benzodiazol-5-yl)ethynyl]-1-[(3S,5R)-1-(4-hydroxy-4-methylpent-2-ynoyl)-5-(methoxymethyl)pyrrolidin-3-yl]-5 (methylamino)pyrazole-4-carboxamide]", "IC50": "≤ 100"}
{"smiles": "CNc1c(C(N)=O)c(C#Cc2cc3nc(C)n(C4CC4)c3cc2Cl)nn1[C@H]1C[C@H](COC)N(C(=O)C#CC(C)(C)O)C1", "note": "[Example 228, 3-[2-(6-Chloro-1-cyclopropyl-2-methyl-1,3-benzodiazol-5-yl)ethynyl]-1-[(3S,5R)-1-(4-hydroxy-4-methylpent-2-ynoyl)-5-(methoxymethyl)pyrrolidin-3-yl]-5-(methylamino)pyrazole-4-carboxamide]", "IC50": "≤ 100"}
{"smiles": "C=CC(=O)N1C[C@@H](n2nc(C#Cc3cc4ncn(C5CCC5)c4cc3Cl)c(C(N)=O)c2NC)C[C@@H]1COC", "note": "[Example 232, 3-[2-(6-chloro-1-cyclobutyl-1,3-benzodiazol-5-yl)ethynyl]-1-[(3S,5R)-5-(methoxymethyl)-1-(prop-2-enoyl)pyrrolidin-3-yl]-5-(methylamino)pyrazole-4-carboxamide]", "IC50": "≤ 100"}
{"smiles": "C=CC(=O)N1C[C@@H](n2nc(C#Cc3cc4nc(C)n(C5CCC5)c4cc3Cl)c(C(N)=O)c2NC)C[C@@H]1COC", "note": "[Example 233, 1-((3S,5R)-1-Acryloyl-5-(methoxymethyl)pyrrolidin-3-yl)-3-((6-chloro-1-cyclobutyl-2-methyl-1H-benzo[d]imidazol-5-yl)ethynyl)-5-(methylamino)-1H-pyrazole-4-carboxamide]", "IC50": "≤ 100"}
{"smiles": "C=CC(=O)N1C[C@@H](n2nc(C#Cc3cc4ncn(C5COC5)c4cc3F)c(C(N)=O)c2NC)C[C@@H]1COC", "note": "[Example 234, 3-{2-[6-Fluoro-1-(oxetan-3-yl)-1,3-benzodiazol-5-yl]ethynyl}-1-[(3S,5R)-5-(methoxymethyl)-1-(prop-2-enoyl)pyrrolidin-3-yl]-5-(methylamino)pyrazole-4-carboxamide]", "IC50": "≤ 100"}
{"smiles": "C=CC(=O)N1C[C@@H](n2nc(C#Cc3cc4ncc(C)cc4cc3F)c(C(N)=O)c2NC)C[C@@H]1COC", "note": "[Example 236, 3-[2-(6-fluoro-3-methylquinolin-7-yl)ethynyl]-1-[(3S,5R)-5-(methoxymethyl)-1-(prop-2-enoyl)pyrrolidin-3-yl]-5-(methylamino)pyrazole-4-carboxamide]", "IC50": "≤ 100"}
{"smiles": "C=CC(=O)N1C[C@@H](n2nc(C#Cc3cc4ncn(C5CC5)c4cc3F)c(C(N)=O)c2N)C[C@@H]1[C@@H](C)O", "note": "[Example 240, 5-Amino-3-[2-(1-cyclopropyl-6-fluoro-1,3-benzodiazol-5-yl)ethynyl]-1-[(3S,5R)-5-[(1R)-1-hydroxyethyl]-1-(prop-2-enoyl)pyrrolidin-3-yl]pyrazole-4-carboxamide]", "IC50": "≤ 100"}
{"smiles": "C=CC(=O)N1C[C@@H](n2nc(C#Cc3cc4ncn(C5CC5)c4cc3F)c(C(N)=O)c2N)C[C@@H]1[C@H](C)O", "note": "[Example 241, 5-Amino-3-[2-(1-cyclopropyl-6-fluoro-1,3-benzodiazol-5-yl)ethynyl]-1-[(3S,5R)-5-[(1S)-1-hydroxyethyl]-1-(prop-2-enoyl)pyrrolidin-3-yl]pyrazole-4-carboxamide]", "IC50": "≤ 100"}
{"smiles": "C=CC(=O)N1C[C@@H](n2nc(C#Cc3cc4nc(C)n(C5CC5)c4cc3Cl)c(C(N)=O)c2N)C[C@@H]1[C@@H](C)O", "note": "[Example 244, 1-((3S,5R)-1-Acryloyl-5-((R)-1-hydroxyethyl)pyrrolidin-3-yl)-5-amino-3-((6-chloro-1-cyclopropyl-2-methyl-1H-benzo[d]imidazol-5-yl)ethynyl)-1H-pyrazole-4-carboxamide]", "IC50": "≤ 100"}
{"smiles": "C=CC(=O)N1C[C@@H](n2nc(C#Cc3cc4nc(C)n(C5CC5)c4cc3Cl)c(C(N)=O)c2N)C[C@@H]1[C@H](C)O", "note": "[Example 245, 1-((3S,5R)-1-Acryloyl-5-((S)-1-hydroxyethyl)pyrrolidin-3-yl)-5-amino-3-((6-chloro-1-cyclopropyl-2-methyl-1H-benzo[d]imidazol-5-yl)ethynyl)-1H-pyrazole-4-carboxamide]", "IC50": "≤ 100"}
{"smiles": "C=CC(=O)N1C[C@@H](n2nc(C#Cc3cc4nc(C)n(C5CC5)c4cc3F)c(C(N)=O)c2N)C[C@@H]1[C@@H](C)O", "note": "[Example 246]", "IC50": "≤ 100"}
{"smiles": "C=CC(=O)N1C[C@@H](n2nc(C#Cc3cc4nc(C)n(C5CC5)c4cc3F)c(C(N)=O)c2N)C[C@@H]1[C@H](C)O", "note": "[Example 247, 5-Amino-3-[2-(1-cyclopropyl-6-fluoro-2-methyl-1,3-benzodiazol-5-yl)ethynyl]-1-[(3S,5R)-5-[(1S)-1-hydroxyethyl]-1-(prop-2-enoyl)pyrrolidin-3-yl]pyrazole-4-carboxamide]", "IC50": "≤ 100"}
{"smiles": "C=CC(=O)N1C[C@@H](n2nc(C#Cc3cc4ncn(C5COC5)c4cc3Cl)c(C(N)=O)c2NC)C[C@@H]1COC", "note": "[Example 248]", "IC50": "≤ 100"}
{"smiles": "C=CC(=O)N1C[C@@H](n2nc(C#Cc3cc4nc(C)n(C5COC5)c4cc3Cl)c(C(N)=O)c2NC)C[C@@H]1COC", "note": "[Example 249, 3-{2-[6-chloro-2-methyl-1-(oxetan-3-yl)-1,3-benzodiazol-5-yl]ethynyl}-1-[(3S,5R)-5-(methoxymethyl)-1-(prop-2-enoyl)pyrrolidin-3-yl]-5-(methylamino)pyrazole-4-carboxamide]", "IC50": "≤ 100"}
